Experiments:
[1] = biological target: T1, human melanopsin F94^2.61C/S188^ECL2T/W189^ECL2F/S269^6.52A mutant (Homo sapiens, UniProt Q9UHM6, F127C/S222T/S313A/W223F); assay: GsX GloSensor assay with Gsα/q11; format: cell-based; details: up to 16.7 μM AA92593, COS-1 cells
T1 construct: expressed in transfected cells; host or cells: COS-1
Text: (§1) Next, we attempted to render human melanopsin more ineffective to AA92593 by combining W189^ECL2F with F94^2.61C/S188^ECL2T/S269^6.52A. […] We note that the loss of sensitivity for AA92593 by the quadruple substitutions was not due to the substitutions-induced changes in absorption spectrum or localization in COS-1 cells. […] In the GloSensor assay, a small difference in G protein activation between the triple and quadruple mutants in the presence of AA92593 would be amplified through the second messenger signaling cascade.
(§2) For GloSensor assay, opsins, GloSensor assay sensor (coded by pGlo-22F), and NanoBiT-tagged G proteins were transiently expressed in COS-1 cells (kindly provided from Dr David Farrens, Oregon Health and Science University) using PEI as described previously ([24], [52]). For the GsX GloSensor assay ([12], [13]), each well of a 96-well assay plate (Corning) was transfected with 50 ng opsin plasmid, 16.7 ng G protein plasmid, 50 ng pGlo-22F plasmid (Promega), and 500 ng PEI in 25 μl Opti-mem and 75 μl Dulbecco's modified Eagle's medium (D-MEM). […] For GFP-fluorescence microscopy, a 35-mm cell culture dish (IWAKI) was transfected with 2 μg melanopsin-GFP plasmid and 8 μg PEI in 400 μl Opti-mem and 1.2 ml D-MEM. […]

[2] = tested on: mouse melanopsin L207^5.42F mutant; assay: GsX GloSensor assay with Gsα/q11; format: cell-based; details: 16.7 μM AA92593, COS-1 cells
Text: as §1, §2

T1 sequence (Q9UHM6 1-384 F127C/S222T/W223F/S313A): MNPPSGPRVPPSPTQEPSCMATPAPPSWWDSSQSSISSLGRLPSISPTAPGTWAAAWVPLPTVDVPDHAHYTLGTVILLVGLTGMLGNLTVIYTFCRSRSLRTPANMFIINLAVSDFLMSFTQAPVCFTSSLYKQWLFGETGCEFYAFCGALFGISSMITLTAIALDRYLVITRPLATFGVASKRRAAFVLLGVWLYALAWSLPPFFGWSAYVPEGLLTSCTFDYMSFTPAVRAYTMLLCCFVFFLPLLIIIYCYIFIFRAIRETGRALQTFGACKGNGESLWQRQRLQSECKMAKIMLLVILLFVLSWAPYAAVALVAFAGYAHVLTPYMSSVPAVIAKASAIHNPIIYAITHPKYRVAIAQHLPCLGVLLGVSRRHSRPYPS

For `COc1ccc(S(=O)(=O)N2CCCCC2)cc1C` [AA92593], the “sensitivity to AA92593” value [1] was “almost completely lost sensitivity” and the “increased susceptibility to the antagonist vs WT” value [2] was about 26%.

Reference: PMC12051620, “Molecular basis underlying the specificity of an antagonist AA92593 for mammalian melanopsins” (The Journal of Biological Chemistry, 2025)
